The text below walks through data of US9670227B2, “Thienopyrimidine derivatives, a process for their preparation and pharmaceutical compositions containing them” (LES LABORATOIRES SERVIER, priority 2013, dated 2017).

The target in this test is Mcl-1 protein (UniProtKB primary accession number: Q07820) (Homo sapiens, UniProt Q07820). The experiment in a line: Inhibition of Mcl-1 by fluorescence polarisation, Method 1. The class given is binding. The settings on record: for IC50: read-out: IC50 (M) Mcl-1 FP; for percentage fluorescence polarisation inhibition, Mcl-1 FP: partial inhibitors. The method, then:
The relative binding potency of each compound was determined via Fluorescence Polarisation (FP).
An 11 point serial dilution of each compound was prepared in DMSO and 2 μl transferred into flat bottomed, low binding, 384-well plate (final DMSO concentration 5%). 38 μl of buffer (10 mM 4-(2-hydroxyethyl)-1-piperazineethanesulfonic acid [HEPES], 150 mM NaCl, 0.05% Tween 20, pH 7.4), containing the Fluorescein labelled ligand (final concentration 1 nM) and Mcl-1 protein (final concentration 5 nM) was then added.
In general terms: In fluorescence polarisation assays a small probe gives low polarisation when free and higher when bound to something large.

[1] abbreviates: fluorescence polarisation test, Method 2 values are underlined in the patent (underlining not visible here).
[2] abbreviates: fluorescence polarisation, Method 1, or Method 2.
The mark [3] stands for this setting: fluorescence polarisation test, Method 1, or Method 2 where the value is underlined (underlining not visible).

Structures are written as SMILES. Like-named read-outs stand apart in the source and are kept apart here.

Chain of Mcl-1 protein (Q07820 whole entry): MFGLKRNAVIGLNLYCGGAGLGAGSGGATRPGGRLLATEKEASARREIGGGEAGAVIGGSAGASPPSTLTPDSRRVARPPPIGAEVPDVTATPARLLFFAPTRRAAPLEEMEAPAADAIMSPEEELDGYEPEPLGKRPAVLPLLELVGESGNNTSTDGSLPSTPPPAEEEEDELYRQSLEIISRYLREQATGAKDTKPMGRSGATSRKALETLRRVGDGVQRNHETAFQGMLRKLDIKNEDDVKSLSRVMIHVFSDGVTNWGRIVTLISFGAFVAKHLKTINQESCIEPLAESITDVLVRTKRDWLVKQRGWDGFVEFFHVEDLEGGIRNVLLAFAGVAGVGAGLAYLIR

In general, IC50 refers to the concentration at which inhibition is half-maximal. In the case of `Cc1c(-c2c(-c3ccco3)sc3ncnc(OC(C(=O)O)c4ccccc4)c23)ccc(OCCN2CCN(C)CC2)c1Cl` [Example 340, (2R)-{[(5Sa)-5-{3-chloro-2-methyl-4-[2-(4-methylpiperazin-1-yl)ethoxy]phenyl}-6-(furan-2-yl)thieno[2,3-d]pyrimidin-4-yl]oxy}(phenyl)ethanoic acid], the IC50 under setting [1] stood at 6.7e-07 M.
As for `CCOC(=O)[C@@H](Cc1ccccc1OC[C@H]1CCCO1)Oc1ncnc2sc(-c3ccc(F)cc3)c(-c3ccc(OCCN4CCOCC4)c(Cl)c3C)c12` [Example 629, ethyl (2R)-2-{[(5Sa)-5-{3-chloro-2-methyl-4-[2-(morpholin-4-yl)ethoxy]phenyl}-6-(4-fluorophenyl)thieno[2,3-d]pyrimidin-4-yl]oxy}-3-{2-[(2R)-tetrahydrofuran-2-ylmethoxy]phenyl}propanoate], the “percentage fluorescence polarisation inhibition, Mcl-1 FP” value (@ 10 uM test compound) amounted to 14.95% @ 10 uM.
`CCOC(=O)C(Cc1ccccc1OCc1ccnn1C(C)(C)C)Oc1ncnc2sc(-c3ccc(F)cc3)c(-c3ccc(OCCN4CCN(C)CC4)c(Cl)c3C)c12` [Example 791, ethyl (2R)-3-{2-[(1-tert-butyl-1H-pyrazol-5-yl)methoxy]phenyl}-2-{[(5Sa)-5-{3-chloro-2-methyl-4-[2-(4-methylpiperazin-1-yl)ethoxy]phenyl}-6-(4-fluorophenyl)thieno[2,3-d]pyrimidin-4-yl]oxy}propanoate]: the IC50 under setting [2] stood at 2.26e-06 M.
On to `CCCCCCCCOC(=O)[C@@H](Cc1ccccc1OC)Oc1ncnc2sc(-c3ccc(F)cc3)c(-c3ccc(OCCN4CCN(C)CC4)c(Cl)c3C)c12` [Example 850, octyl (2R)-2-{[(5Sa)-5-{3-chloro-2-methyl-4-[2-(4-methylpiperazin-1-yl)ethoxy]phenyl}-6-(4-fluorophenyl)thieno[2,3-d]pyrimidin-4-yl]oxy}-3-(2-methoxyphenyl)propanoate], for which the “percentage fluorescence polarisation inhibition (Mcl-1 FP), partial inhibitors” value (test compound at 10 uM, Method 1, or Method 2 where the value is underlined (underlining not visible)) was 29.4% @ 10 uM.
`Cc1c(-c2c(-c3ccc(F)cc3)sc3ncnc(OC(Cc4ccccc4OCc4ccnc(-c5ccccc5F)n4)C(=O)OCC(=O)N(C)C)c23)ccc(OCCN2CCN(C)CC2)c1Cl` [Example 816, 2-(dimethylamino)-2-oxoethyl (2R)-2-{[(5Sa)-5-{3-chloro-2-methyl-4-[2-(4-methylpiperazin-1-yl)ethoxy]phenyl}-6-(4-fluorophenyl)thieno[2,3-d]pyrimidin-4-yl]oxy}-3-(2-{[2-(2-fluorophenyl)pyrimidin-4-yl]methoxy}phenyl)propanoate]: under setting [3], the IC50 worked out at 1.72e-07 M.
On to `COCCCc1ccccc1CC(Oc1ncnc2sc(-c3ccc(F)cc3)c(-c3ccc(OCCN4CCN(C)CC4)c(Cl)c3C)c12)C(=O)O` [Example 655, (2R)-2-{[(5Sa)-5-{3-chloro-2-methyl-4-[2-(4-methylpiperazin-1-yl)ethoxy]phenyl}-6-(4-fluorophenyl)thieno[2,3-d]pyrimidin-4-yl]oxy}-3-[2-(3-methoxypropyl)phenyl]propanoic acid], for which the IC50 under setting [2] is 2.6e-08 M.
For the compound `COc1ccccc1CC(Oc1ncnc2sc(C(=O)N(C)C)c(-c3ccc(OCCN4CCN(C)CC4)c(Cl)c3C)c12)C(=O)O` [Example 574, (2R)-2-{[(5Ra)-5-{3-chloro-2-methyl-4-[2-(4-methylpiperazin-1-yl)ethoxy]phenyl}-6-(dimethylcarbamoyl)thieno[2,3-d]pyrimidin-4-yl]oxy}-3-(2-methoxyphenyl)propanoic acid], where the note is “@ 10 uM test compound, 10 µM”, the “percentage fluorescence polarisation inhibition, Mcl-1 FP” value is on record as 24.3% @ 10 uM.
Regarding `Cc1c(-c2c(-c3cccs3)sc3ncnc(OC(Cc4ccccc4)C(=O)O)c23)ccc(OCCN2CCN(C)CC2)c1Cl` [Example 505, (2R)-2-{[(5Sa)-5-{3-chloro-2-methyl-4-[2-(4-methylpiperazin-1-yl)ethoxy]phenyl}-6-(thiophen-2-yl)thieno[2,3-d]pyrimidin-4-yl]oxy}-3-phenylpropanoic acid], under setting [2], the IC50 was determined as 5.8e-08 M.
Turning to `Cc1c(-c2c(-c3ccc(F)cc3)sc3ncnc(OC(Cc4ccccc4OCc4cnccn4)C(=O)O)c23)ccc(OCCN2CCOCC2)c1Cl` [Example 148, (2R)-2-{[(5Sa)-5-{3-chloro-2-methyl-4-[2-(morpholin-4-yl)ethoxy]phenyl}-6-(4-fluorophenyl)thieno[2,3-d]pyrimidin-4-yl]oxy}-3-[2-(pyrazin-2-ylmethoxy)phenyl]propanoic acid], under setting [1], the IC50 is 3.1e-08 M.
Take `Cc1c(-c2c(-c3ccco3)sc3ncnc(O[C@@H](C(=O)O)[C@@H](O)c4ccccc4)c23)ccc(OCCN2CCN(C)CC2)c1Cl` (single isomer, unassigned) [Example 343]: the IC50 under setting [1] is 2.5e-07 M.
As for `Cc1oc(=O)oc1COC(=O)C(Cc1ccccc1OCc1ccnn1C(C)(C)C)Oc1ncnc2sc(-c3cccc(F)c3F)c(-c3ccc(OCCN(C)C)c(Cl)c3C)c12` [Example 824, (5-methyl-2-oxo-1,3-dioxol-4-yl)methyl (2R)-3-{2-[(1-tert-butyl-1H-pyrazol-5-yl)methoxy]phenyl}-2-{[(5Sa)-5-{3-chloro-4-[2-(dimethylamino)ethoxy]-2-methylphenyl}-6-(2,3-difluorophenyl)thieno[2,3-d]pyrimidin-4-yl]oxy}propanoate], under setting [3], the IC50 came out at 3.82e-08 M.
Same read-out and setting: under `CCOC(=O)C(Cc1ccccc1OCc1ccnc(-c2ccccc2O)n1)Oc1ncnc2sc(-c3ccc(F)cc3)c(-c3ccc(OCCN4CCN(C)CC4)c(Cl)c3C)c12` [Example 793, ethyl (2R)-2-{[(5Sa)-5-{3-chloro-2-methyl-4-[2-(4-methylpiperazin-1-yl)ethoxy]phenyl}-6-(4-fluorophenyl)thieno[2,3-d]pyrimidin-4-yl]oxy}-3-(2-{[2-(2-hydroxyphenyl)pyrimidin-4-yl]methoxy}phenyl)propanoate] stands 5.37e-06 M.
With `COc1ccccc1C[C@@H](Oc1ncnc2sc(-c3ccc(F)cc3)c(-c3cc(F)c(OCCN4CCN(C)CC4)c(Cl)c3C)c12)C(=O)O` (single isomer, unassigned) [Example 665], the IC50 under setting [2] stood at 3.9e-06 M.
The same measure, in the same setting: under `CCc1sc2ncnc(OC(Cc3ccccc3)C(=O)O)c2c1-c1ccc(OCCN2CCN(C)CC2)cc1C` [Example 417, (2R)-2-[(6-ethyl-(5Sa)-5-{2-methyl-4-[2-(4-methylpiperazin-1-yl)ethoxy]phenyl}thieno[2,3-d]pyrimidin-4-yl)oxy]-3-phenylpropanoic acid] stands 1.5e-07 M; under `COc1nccc(COc2ccccc2CC(Oc2ncnc3sc(-c4ccc(F)c(OCCN5CCN(C)CC5)c4)c(-c4ccc(OC)c(Cl)c4C)c23)C(=O)O)n1` [Example 698, (2R)-2-{[(5Sa)-5-(3-chloro-4-methoxy-2-methylphenyl)-6-{4-fluoro-3-[2-(4-methylpiperazin-1-yl)ethoxy]phenyl}thieno[2,3-d]pyrimidin-4-yl]oxy}-3-{2-[(2-methoxypyrimidin-4-yl)methoxy]phenyl}propanoic acid], 7.3e-09 M.
`Cc1c(-c2c(-c3ccc(F)cc3)sc3ncnc(OC(Cc4ccccc4OCC4CCCO4)C(=O)O)c23)ccc(OC2CCCN(C)C2)c1Cl` (single isomer, unassigned) [Example 650, (2R)-2-{[(5Sa)-5-{3-chloro-2-methyl-4-[((3R or S)-1-methylpiperidin-3-yl)oxy]phenyl}-6-(4-fluorophenyl)thieno[2,3-d]pyrimidin-4-yl]oxy}-3-{2-[(2R)-tetrahydrofuran-2-ylmethoxy]phenyl}propanoic acid]: the IC50 under setting [2] came out at 5.1e-08 M.
Take `Cc1c(-c2c(-c3ccco3)sc3ncnc(O[C@@H](C(=O)O)c4ccccc4)c23)ccc(OCCN2CCN(C)CC2)c1Cl` [Example 339, (2R)-{[(5Ra)-5-{3-chloro-2-methyl-4-[2-(4-methylpiperazin-1-yl)ethoxy]phenyl}-6-(furan-2-yl)thieno[2,3-d]pyrimidin-4-yl]oxy}(phenyl)ethanoic acid]: under “@ 10 uM test compound”, the “percentage fluorescence polarisation inhibition (Mcl-1 FP), partial inhibitors” value was 18.85% @ 10 uM.
As to `CCC(=O)OC(C)OC(=O)C(Cc1ccccc1OCc1ccnc(-c2ccccc2OC)n1)Oc1ncnc2sc(-c3ccc(F)cc3)c(-c3ccc(OCCN4CCN(C)CC4)c(Cl)c3C)c12` [Example 860, 1-(propanoyloxy)ethyl (2R)-2-{[(5Sa)-5-{3-chloro-2-methyl-4-[2-(4-methylpiperazin-1-yl)ethoxy]phenyl}-6-(4-fluorophenyl)thieno[2,3-d]pyrimidin-4-yl]oxy}-3-(2-{[2-(2-methoxyphenyl)pyrimidin-4-yl]methoxy}phenyl)propanoate], the IC50 under setting [3] came out at 2.04e-07 M.
Same read-out and setting: under `COCCOC(=O)C(Cc1ccccc1OCc1ccnc(-c2ccccc2OCCOC)n1)Oc1ncnc2sc(-c3ccc(F)cc3)c(-c3ccc(OCCN(C)C)c(Cl)c3C)c12` [Example 800, 2-methoxyethyl (2R)-2-{[(5Sa)-5-{3-chloro-4-[2-(dimethylamino)ethoxy]-2-methylphenyl}-6-(4-fluorophenyl)thieno[2,3-d]pyrimidin-4-yl]oxy}-3-[2-({2-[2-(2-methoxyethoxy)phenyl]pyrimidin-4-yl}methoxy)phenyl]propanoate] stands 1.39e-06 M.
As to `CC#Cc1sc2ncnc(O[C@H](Cc3ccccc3OC)C(=O)O)c2c1-c1cc(F)c(OC)c(Cl)c1C` (single isomer, unassigned) [Example 471], the IC50 under setting [2] was determined as 6.3e-09 M.
With `COc1nccc(COc2ccccc2C[C@@H](Oc2ncnc3sc(-c4ccc(F)c(OCCN5CCOCC5)c4)c(-c4ccc(OC)c(Cl)c4C)c23)C(=O)O)n1` [Example 699, (2R)-2-{[(5Ra)-5-(3-chloro-4-methoxy-2-methylphenyl)-6-{4-fluoro-3-[2-(morpholin-4-yl)ethoxy]phenyl}thieno[2,3-d]pyrimidin-4-yl]oxy}-3-{2-[(2-methoxypyrimidin-4-yl)methoxy]phenyl}propanoic acid], for the setting “@ 1 uM test compound”, the “percentage fluorescence polarisation inhibition, Mcl-1 FP” value is reported as 28.5% @ 1 uM.
